Values quoted from earlier work, collected in patent US7803402B2, “Pharmaceutical preparations” (priority 2002, dated 2010).

Experiments:
[1] = in vivo
[2] = cefixime in the circulation

solubility in dehydrated alcohol (dehydrated alcohol): sparingly soluble
solubility in ethyl acetate (ethyl acetate): practically insoluble
solubility in methyl alcohol (methyl alcohol): freely soluble
solubility in water (water): slightly soluble
eliminated by nonrenal mechanisms [1]: Up to 60%
placental transfer [1]: crosses the placenta
removal by dialysis [1]: not substantially removed
bound to plasma proteins [2]: About 65%
SMILES: C=CC1=C(C(=O)O)N2C(=O)[C@@H](NC(=O)/C(=N\OCC(=O)O)c3csc(N)n3)[C@H]2SC1 [Cefixime]
